{"source": "patent EP0603240B1", "about": "“SAFENING HERBICIDAL PYRAZOLYLSULFONYLUREAS” (priority 1991, dated 1993)", "format_in_all_cases": "in vivo", "key": {"corn [1]": {"test_system": "corn", "experiment": "Example 3, Procedure I: antidotes against Herbicide No. 1", "settings": "no antidote", "method_in_brief": "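Herbicide and antidote, each in acetone, mixed into a soil layer covering the seeded corn bed; untreated and herbicide-only controls run alongside. Greenhouse, sub-irrigated, barnyardgrass present; herbicide 4.48 down to 0.56 kg/ha. Percent injury scored; efficacy = injury without minus with antidote.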"}, "corn [2]": {"test_system": "corn", "experiment": "Example 6, Procedure II: Herbicide No. 1 + alachlor (No. 7) with antidotes", "method_in_brief": "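Herbicide No. 1 plus alachlor and antidote, each applied in acetone, mixed into silt loam cover soil over seeded corn; untreated and herbicide-only controls included. Given initial overhead irrigation equal to 0.6 cm rainfall, then greenhouse sub-irrigation. Percent injury scored, duplicate averages; efficacy is injury without minus with antidote.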"}, "[3]": {"test_system": "barnyardgrass (Echinochloa crusgalli)", "experiment": "Example 8, Procedure II: Herbicide No. 1 + butachlor (No. 9) with antidotes", "method": "(§1) Containers were filled and compacted with a fumigated silt loam top soil to a depth of about 1.3 cm from the top of the container. A first container was designated as an untreated control, a second container was designated as a herbicide control, and a third container was designated as a herbicide + antidote test container. Each of the containers was seeded with a crop species. A measured amount of herbicide dispersed or dissolved in acetone was applied to a measured quantity of soil. To this same quantity of soil treated with herbicide, there was added a measured amount of antidote dispersed or dissolved in acetone. The quantity of soil treated with the herbicide and antidote was thoroughly mixed to incorporate the herbicide and antidote in the soil uniformly. The seed bed in the third container of soil was covered with the soil treated with the herbicide and antidote and the container was leveled. For each test series, the seed beds of the first and second containers were likewise covered by soil layers. the cover layer of the first container was not treated with herbicide or antidote.\n(§2) The containers were then placed on a bench in a greenhouse and sub-irrigated as required for the duration of the test. […] Plant response is measured in terms of percent injury. Antidote efficacy is indicated as the difference in plant injury by the herbicide(s) without the antidote and with the antidote.\n(§3) This procedure is the same as Procedure I, but modified in the manner that after incorporation of the chemicals (herbicide and antidote) the containers with the covered seedbed were treated with an initial overhead irrigation equivalent to 0.6 cm rainfall, then subsequently sub-irrigated as required on greenhouse benches.\n(§4) In the series of greenhouse tests described below, for routine screening purposes the herbicide/antidote compositions were tested in crop/weed combinations involving corn as the crop and either or both of the weeds barnyardgrass (Echinochloa crusgalli), a monocotyledonous weed, and velvetleaf (Abutilon theophrasti), a dicotyledonous weed. In the tables below, these weeds are indicated by the symbols \"BYG\" and \"VL\", respectively.\n(§5) In this test, the efficacy of the same five antidotes used in Examples 6 and 7 was investigated in compositions comprising Herbicide No. 1 and as a co-herbicide, butachlor (Herbicide No. 9), active ingredient in MACHETE® herbicide, a leading commercial rice herbicide. The test procedure used in this example was the same as that in Examples 6 and 7."}, "[4]": {"test_system": "velvetleaf (Abutilon theophrasti)", "experiment": "Example 8, Procedure II: Herbicide No. 1 + butachlor (No. 9) with antidotes", "method": "as §1, §2, §3, §4, §5"}, "[5]": {"test_system": "barnyardgrass (Echinochloa crusgalli)", "experiment": "Example 10, Procedure II: Herbicide No. 1 + propachlor (No. 5) with antidotes", "settings": "no antidote", "method": "as §1, §2, §3, §4\n(§6) In this test, the safening effect of various antidotes on the herbicidal combination of Herbicide No. 1 and another α-chloroacetanilide co-herbicide, propachlor, (Herbicide No. 5) was investigated. Propachlor is the active ingredient in the commercial herbicide RAMROD®. Procedure II was also used in this test as in the preceding example."}, "[6]": {"test_system": "velvetleaf (Abutilon theophrasti)", "experiment": "Example 10, Procedure II: Herbicide No. 1 + propachlor (No. 5) with antidotes", "settings": "no antidote", "method": "as §1, §2, §3, §4, §6"}, "corn [7]": {"test_system": "corn", "experiment": "Example 13, Procedure II: Herbicide No. 1 + acetochlor (No. 6) with dichloroacetamide antidotes", "settings": "no antidote", "method_in_brief": "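Corn seeded in silt loam, covered with soil into which herbicide No. 1 plus acetochlor and dichloroacetamide antidote (acetone) were incorporated, velvetleaf present. Initial overhead irrigation equivalent to 0.6 cm rainfall, then greenhouse sub-irrigation. Percent injury scored; safening taken as injury difference without versus with antidote.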"}, "[8]": {"settings": "Herbicide No.1 0.14 kg/ha alone"}, "[9]": {"settings": "Herbicide No.1 0.56 kg/ha alone"}, "[10]": {"settings": "Herbicide No.1 0.14 + No.9 2.24 kg/ha, no antidote"}, "[11]": {"settings": "Herbicide No.1 0.56 + No.9 (butachlor) 2.24 kg/ha, no antidote"}}}
{"smiles": "COC(=O)c1c(Cl)nn(C)c1S(=O)(=O)NC(=O)Nc1nc(OC)cc(OC)n1", "note": "[Herbicide No. 1]", "values": [{"measurement": "% Injury Corn", "setting": "corn [1]; Herb. No. 1 0.56 kg/ha", "result": 7, "unit": "%"}, {"measurement": "% Injury Corn", "setting": "corn [1]; Herb. No. 1 1.12 kg/ha", "result": 13, "unit": "%"}, {"measurement": "% Injury Corn", "setting": "corn [1]; Herb. No. 1 2.24 kg/ha", "result": 38, "unit": "%"}, {"measurement": "% Injury Corn", "setting": "corn [1]; Herb. No. 1 4.48 kg/ha", "result": 60, "unit": "%"}, {"measurement": "% Injury Corn", "setting": "corn [2]; Herbicide No.1 0.14 + No.7 4.48 kg/ha, no antidote", "result": 20, "unit": "%"}, {"measurement": "% Injury Corn", "setting": "corn [2]; [8]", "result": 5, "unit": "%"}, {"measurement": "% Injury Corn", "setting": "corn [2]; Herbicide No.1 0.56 + No.7 (alachlor) 4.48 kg/ha, no antidote, average of duplicates", "result": 30, "unit": "%"}, {"measurement": "% Injury Corn", "setting": "corn [2]; [9]", "result": 25, "unit": "%"}, {"measurement": "% Injury BYG", "setting": "[3]; [10]", "result": 100, "unit": "%"}, {"measurement": "% Injury BYG", "setting": "[3]; [8]", "result": 55, "unit": "%"}, {"measurement": "% Injury BYG", "setting": "[3]; [11]", "result": 100, "unit": "%"}, {"measurement": "% Injury BYG", "setting": "[3]; [9]", "result": 93, "unit": "%"}, {"measurement": "% Injury VL", "setting": "[4]; [10]", "result": 70, "unit": "%"}, {"measurement": "% Injury VL", "setting": "[4]; [8]", "result": 70, "unit": "%"}, {"measurement": "% Injury VL", "setting": "[4]; [11]", "result": 85, "unit": "%"}, {"measurement": "% Injury VL", "setting": "[4]; [9]", "result": 85, "unit": "%"}, {"measurement": "% Injury BYG", "setting": "[5]; [8]", "result": 75, "unit": "%"}, {"measurement": "% Injury BYG", "setting": "[5]; [9]", "result": 80, "unit": "%"}, {"measurement": "% Injury VL", "setting": "[6]; [8]", "result": 70, "unit": "%"}, {"measurement": "% Injury VL", "setting": "[6]; [9]", "result": 75, "unit": "%"}, {"measurement": "% Injury Corn", "setting": "corn [7]; [8]", "result": 10, "unit": "%"}, {"measurement": "% Injury Corn", "setting": "corn [7]; [9]", "result": 55, "unit": "%"}, {"measurement": "% Injury Corn", "setting": "corn [7]; Herbicide No.1 2.24 kg/ha alone", "result": 80, "unit": "%"}]}
